PMC12300041, “Tricyclic Isatin Derivatives as Anti-Inflammatory Compounds with High Kinase Binding Affinity” (Molecules, 2025)
Values belong to the molecule of their own block, whether it stands above or below them.

How the values were obtained:
kinases = assay: Published kinase profile of SP600125, selectivity score; format: binding; conditions: from published kinase profile; 39/119
[1] = tested on: proinflammatory cytokine production; assay: Multiplex human cytokine ELISA, LPS-stimulated MonoMac-6 cells; format: cell-based; conditions: 10 μM compound, 24 h, versus DMSO-treated control
Text: A multiplex human cytokine ELISA kit from Anogen (Mississauga, ON, Canada) was used to evaluate various cytokines (IL-1α, IL-1β, IL-6, GM-CSF, MCP-1, IFN-γ, and TNF) in the supernatants of MonoMac-6 cells.

[2] = Cytotoxicity, CellTiter-Glo; format: cell-based, human; conditions: human, MonoMac-6 cells; 24 h incubation; N.T.: no cytotoxicity at concentrations up to 50 µM
MonoMac-6 Cells = assay: Cytotoxicity, CellTiter-Glo; format: cell-based, human; conditions: 24 h incubation; N.T.: no cytotoxicity at concentrations up to 50 µM
[3] = Cytotoxicity, CellTiter-Glo; format: cell-based, human; conditions: human, THP-1Blue cells; 24 h incubation; N.T.: no cytotoxicity at concentrations up to 50 µM
Method: (§1) Cytotoxicity was analyzed with a CellTiter-Glo Luminescent Cell Viability Assay Kit from Promega (Madison, WI, USA) according to the manufacturer’s protocol. THP-1Blue cells were treated with varying concentrations of the test compounds (up to 50 µM) and cultivated for 24 h. After treatment, the cells were allowed to equilibrate to room temperature for 30 min, the substrate was added, and the samples were analyzed with a Fluoroscan Ascent FL (Thermo Fisher Scientific, Waltham, MA, USA).

THP-1 Cells = assay: Cytotoxicity, CellTiter-Glo; format: cell-based, human; conditions: 24 h incubation; N.T.: no cytotoxicity at concentrations up to 50 µM
Method: as §1

PIM1 = target: T1, PIM1 (Homo sapiens, UniProt P11309); assay: KINOMEscan; format: binding; conditions: PIM1; N.B.: no binding at concentrations up to 30 µM
T1 construct: purchased Eurofins Pharma Discovery (KINOMEscan)
T1 sequence (P11309 whole entry): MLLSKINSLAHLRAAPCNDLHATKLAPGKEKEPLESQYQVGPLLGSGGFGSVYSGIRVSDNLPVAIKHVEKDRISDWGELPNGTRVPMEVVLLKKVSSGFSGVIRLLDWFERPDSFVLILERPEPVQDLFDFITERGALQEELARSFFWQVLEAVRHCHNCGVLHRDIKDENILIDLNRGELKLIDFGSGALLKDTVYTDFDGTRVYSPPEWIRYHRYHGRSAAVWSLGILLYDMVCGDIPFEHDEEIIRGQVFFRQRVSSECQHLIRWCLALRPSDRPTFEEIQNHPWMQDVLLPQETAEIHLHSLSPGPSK
Method: (§2) Kinase profiling was performed by KINOMEscan (Eurofins Pharma Discovery, San Diego, CA, USA), using a panel of 423 protein kinases, as described previously. Compounds were submitted for dissociation constant (Kd) determination toward several target kinases using KINOMEscan. […] Binding reactions were performed at room temperature for 1 h, and the fraction of kinase not bound to the test compound was determined by capture with an immobilized affinity ligand and quantified by quantitative polymerase chain reaction. The primary screening at fixed concentrations of the compound was performed in duplicate. For dissociation constant Kd determination, a 12-point half-log dilution series (a maximum concentration of 33 μM) was used.

DYRK1B = target: T2, DYRK1B (Homo sapiens, UniProt Q9Y463); assay: KINOMEscan; format: binding; conditions: DYRK1B; N.B.: no binding at concentrations up to 30 µM
T2 construct: purchased Eurofins Pharma Discovery (KINOMEscan)
Method: as §2

NEK10 = target: T3, NEK10 (Homo sapiens, UniProt Q6ZWH5); assay: KINOMEscan; format: binding; conditions: NEK10; N.B.: no binding at concentrations up to 30 µM
T3 construct: purchased Eurofins Pharma Discovery (KINOMEscan)
T3 sequence (Q6ZWH5 1-1172): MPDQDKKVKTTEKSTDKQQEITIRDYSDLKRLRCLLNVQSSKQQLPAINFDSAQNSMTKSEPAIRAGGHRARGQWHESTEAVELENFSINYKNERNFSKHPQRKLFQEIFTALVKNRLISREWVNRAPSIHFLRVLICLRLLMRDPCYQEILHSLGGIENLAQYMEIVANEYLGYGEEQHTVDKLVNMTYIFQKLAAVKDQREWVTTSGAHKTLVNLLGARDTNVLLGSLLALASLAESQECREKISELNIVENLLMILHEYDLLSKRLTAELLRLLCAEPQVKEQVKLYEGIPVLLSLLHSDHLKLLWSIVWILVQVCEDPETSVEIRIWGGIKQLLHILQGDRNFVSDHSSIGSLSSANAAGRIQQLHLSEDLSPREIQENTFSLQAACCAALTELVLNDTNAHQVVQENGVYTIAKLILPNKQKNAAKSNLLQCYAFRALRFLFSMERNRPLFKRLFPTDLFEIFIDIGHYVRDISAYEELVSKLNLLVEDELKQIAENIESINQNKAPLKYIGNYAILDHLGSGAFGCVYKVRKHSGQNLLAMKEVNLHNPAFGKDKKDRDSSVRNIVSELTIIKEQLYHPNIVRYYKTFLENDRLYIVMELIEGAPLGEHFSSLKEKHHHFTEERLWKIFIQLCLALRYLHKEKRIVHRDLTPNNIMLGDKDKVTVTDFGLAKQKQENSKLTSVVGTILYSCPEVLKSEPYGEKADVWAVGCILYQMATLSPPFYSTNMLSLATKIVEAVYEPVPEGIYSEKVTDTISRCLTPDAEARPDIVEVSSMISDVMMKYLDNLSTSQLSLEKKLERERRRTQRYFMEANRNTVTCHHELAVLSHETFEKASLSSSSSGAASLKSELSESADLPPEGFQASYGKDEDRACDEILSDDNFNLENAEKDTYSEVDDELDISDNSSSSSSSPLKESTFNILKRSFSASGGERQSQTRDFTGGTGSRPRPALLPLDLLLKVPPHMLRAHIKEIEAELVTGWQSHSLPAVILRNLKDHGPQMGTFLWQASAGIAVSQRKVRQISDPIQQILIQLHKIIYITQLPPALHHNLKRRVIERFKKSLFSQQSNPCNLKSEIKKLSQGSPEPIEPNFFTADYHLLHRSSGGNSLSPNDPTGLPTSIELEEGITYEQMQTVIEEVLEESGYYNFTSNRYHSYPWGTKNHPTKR
Method: as §2

DYRK1A = target: T4, DYRK1A (Homo sapiens, UniProt Q13627); assay: KINOMEscan; format: binding; conditions: DYRK1A; N.B.: no binding at concentrations up to 30 µM
T4 construct: purchased Eurofins Pharma Discovery (KINOMEscan)
Method: as §2

DAPK3 = target: T5, DAPK3 (Homo sapiens, UniProt O43293); assay: KINOMEscan; format: binding; conditions: DAPK3; N.B.: no binding at concentrations up to 30 µM
T5 construct: purchased Eurofins Pharma Discovery (KINOMEscan)
T5 sequence (O43293 whole entry): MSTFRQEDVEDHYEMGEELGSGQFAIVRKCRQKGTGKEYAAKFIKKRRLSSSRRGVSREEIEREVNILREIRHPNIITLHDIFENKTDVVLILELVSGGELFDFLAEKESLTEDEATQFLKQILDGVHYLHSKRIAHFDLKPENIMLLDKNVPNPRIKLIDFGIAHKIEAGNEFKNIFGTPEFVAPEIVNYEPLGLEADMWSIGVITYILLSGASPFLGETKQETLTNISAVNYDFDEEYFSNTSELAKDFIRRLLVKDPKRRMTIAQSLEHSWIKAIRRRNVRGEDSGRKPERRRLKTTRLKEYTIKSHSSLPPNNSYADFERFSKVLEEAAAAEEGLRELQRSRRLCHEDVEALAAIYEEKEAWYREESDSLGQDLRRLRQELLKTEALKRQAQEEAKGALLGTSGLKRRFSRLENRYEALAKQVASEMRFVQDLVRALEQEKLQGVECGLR
Method: as §2

DAPK2 = target: T6, DAPK2 (Homo sapiens, UniProt Q9UIK4); assay: KINOMEscan; format: binding; conditions: DAPK2; N.B.: no binding at concentrations up to 30 µM
T6 construct: purchased Eurofins Pharma Discovery (KINOMEscan)
T6 sequence (Q9UIK4 whole entry): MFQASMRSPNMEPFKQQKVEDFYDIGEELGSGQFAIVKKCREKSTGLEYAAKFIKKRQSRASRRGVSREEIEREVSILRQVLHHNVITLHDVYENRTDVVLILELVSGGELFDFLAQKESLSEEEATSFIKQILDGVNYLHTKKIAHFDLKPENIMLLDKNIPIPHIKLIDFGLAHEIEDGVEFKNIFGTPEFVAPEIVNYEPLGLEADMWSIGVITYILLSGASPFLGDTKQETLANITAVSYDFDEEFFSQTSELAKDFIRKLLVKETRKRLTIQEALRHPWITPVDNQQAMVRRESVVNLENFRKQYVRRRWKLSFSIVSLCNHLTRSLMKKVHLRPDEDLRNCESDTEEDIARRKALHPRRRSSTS
Method: as §2

HASPIN = target: T7, HASPIN (Homo sapiens, UniProt Q8TF76); assay: KINOMEscan; format: binding; conditions: Haspin; N.B.: no binding at concentrations up to 30 µM
T7 construct: purchased Eurofins Pharma Discovery (KINOMEscan)
T7 sequence (Q8TF76 1-798): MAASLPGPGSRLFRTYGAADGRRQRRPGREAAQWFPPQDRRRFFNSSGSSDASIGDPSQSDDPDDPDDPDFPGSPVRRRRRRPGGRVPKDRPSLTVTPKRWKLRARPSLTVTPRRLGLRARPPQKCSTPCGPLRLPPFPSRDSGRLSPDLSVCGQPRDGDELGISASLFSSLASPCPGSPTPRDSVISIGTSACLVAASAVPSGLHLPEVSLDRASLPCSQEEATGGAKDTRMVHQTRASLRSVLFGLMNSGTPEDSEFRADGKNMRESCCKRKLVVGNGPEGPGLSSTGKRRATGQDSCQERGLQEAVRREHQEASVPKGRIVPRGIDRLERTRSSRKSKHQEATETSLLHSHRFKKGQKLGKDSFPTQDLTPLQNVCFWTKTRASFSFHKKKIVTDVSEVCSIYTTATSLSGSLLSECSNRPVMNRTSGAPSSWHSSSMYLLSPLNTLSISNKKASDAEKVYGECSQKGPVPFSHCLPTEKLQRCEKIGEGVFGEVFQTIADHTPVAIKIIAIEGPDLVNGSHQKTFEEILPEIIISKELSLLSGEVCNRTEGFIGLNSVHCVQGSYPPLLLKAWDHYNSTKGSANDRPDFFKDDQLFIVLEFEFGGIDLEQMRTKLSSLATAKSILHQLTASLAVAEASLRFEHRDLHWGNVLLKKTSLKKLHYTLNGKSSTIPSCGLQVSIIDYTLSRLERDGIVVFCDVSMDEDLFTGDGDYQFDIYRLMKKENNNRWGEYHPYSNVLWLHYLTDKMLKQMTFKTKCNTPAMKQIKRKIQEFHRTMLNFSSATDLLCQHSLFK
Method: as §2

HIPK1 = target: T8, HIPK1 (Homo sapiens, UniProt Q86Z02); assay: KINOMEscan; format: binding; conditions: HIPK1; N.B.: no binding at concentrations up to 30 µM
T8 construct: purchased Eurofins Pharma Discovery (KINOMEscan)
T8 sequence (Q86Z02 whole entry): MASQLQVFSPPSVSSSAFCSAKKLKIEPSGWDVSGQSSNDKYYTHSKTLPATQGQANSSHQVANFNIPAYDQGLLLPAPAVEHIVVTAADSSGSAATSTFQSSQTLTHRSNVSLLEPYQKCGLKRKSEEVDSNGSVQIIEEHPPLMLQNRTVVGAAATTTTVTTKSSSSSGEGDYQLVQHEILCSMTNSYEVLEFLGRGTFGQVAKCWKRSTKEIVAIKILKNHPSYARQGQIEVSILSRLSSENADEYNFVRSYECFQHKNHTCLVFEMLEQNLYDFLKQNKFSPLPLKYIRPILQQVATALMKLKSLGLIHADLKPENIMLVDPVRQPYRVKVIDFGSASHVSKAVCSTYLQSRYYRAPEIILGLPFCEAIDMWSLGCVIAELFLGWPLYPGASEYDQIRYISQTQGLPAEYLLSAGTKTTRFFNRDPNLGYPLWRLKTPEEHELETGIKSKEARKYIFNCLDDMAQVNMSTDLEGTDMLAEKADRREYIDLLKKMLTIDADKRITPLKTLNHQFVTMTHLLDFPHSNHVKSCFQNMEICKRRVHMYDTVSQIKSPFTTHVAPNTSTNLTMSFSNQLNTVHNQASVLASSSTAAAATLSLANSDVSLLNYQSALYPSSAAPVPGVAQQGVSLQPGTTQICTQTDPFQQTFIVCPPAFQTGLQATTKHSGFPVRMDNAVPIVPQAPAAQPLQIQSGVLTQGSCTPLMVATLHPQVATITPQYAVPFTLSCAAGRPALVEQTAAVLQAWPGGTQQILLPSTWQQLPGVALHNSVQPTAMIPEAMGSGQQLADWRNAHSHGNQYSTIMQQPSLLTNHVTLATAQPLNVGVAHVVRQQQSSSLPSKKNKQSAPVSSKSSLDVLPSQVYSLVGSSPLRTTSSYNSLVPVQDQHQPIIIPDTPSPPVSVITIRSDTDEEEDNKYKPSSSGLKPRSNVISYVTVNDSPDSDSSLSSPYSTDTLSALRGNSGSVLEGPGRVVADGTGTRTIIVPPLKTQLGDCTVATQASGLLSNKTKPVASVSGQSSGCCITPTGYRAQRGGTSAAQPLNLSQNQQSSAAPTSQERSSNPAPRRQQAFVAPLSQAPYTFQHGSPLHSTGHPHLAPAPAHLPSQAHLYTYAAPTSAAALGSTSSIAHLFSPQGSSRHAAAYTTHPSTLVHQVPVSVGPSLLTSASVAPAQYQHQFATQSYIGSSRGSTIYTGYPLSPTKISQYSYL
Method: as §2

HIPK3 = target: T9, HIPK3 (Homo sapiens, UniProt Q9H422); assay: KINOMEscan; format: binding; conditions: HIPK3; N.B.: no binding at concentrations up to 30 µM
T9 construct: purchased Eurofins Pharma Discovery (KINOMEscan)
T9 sequence (Q9H422 whole entry): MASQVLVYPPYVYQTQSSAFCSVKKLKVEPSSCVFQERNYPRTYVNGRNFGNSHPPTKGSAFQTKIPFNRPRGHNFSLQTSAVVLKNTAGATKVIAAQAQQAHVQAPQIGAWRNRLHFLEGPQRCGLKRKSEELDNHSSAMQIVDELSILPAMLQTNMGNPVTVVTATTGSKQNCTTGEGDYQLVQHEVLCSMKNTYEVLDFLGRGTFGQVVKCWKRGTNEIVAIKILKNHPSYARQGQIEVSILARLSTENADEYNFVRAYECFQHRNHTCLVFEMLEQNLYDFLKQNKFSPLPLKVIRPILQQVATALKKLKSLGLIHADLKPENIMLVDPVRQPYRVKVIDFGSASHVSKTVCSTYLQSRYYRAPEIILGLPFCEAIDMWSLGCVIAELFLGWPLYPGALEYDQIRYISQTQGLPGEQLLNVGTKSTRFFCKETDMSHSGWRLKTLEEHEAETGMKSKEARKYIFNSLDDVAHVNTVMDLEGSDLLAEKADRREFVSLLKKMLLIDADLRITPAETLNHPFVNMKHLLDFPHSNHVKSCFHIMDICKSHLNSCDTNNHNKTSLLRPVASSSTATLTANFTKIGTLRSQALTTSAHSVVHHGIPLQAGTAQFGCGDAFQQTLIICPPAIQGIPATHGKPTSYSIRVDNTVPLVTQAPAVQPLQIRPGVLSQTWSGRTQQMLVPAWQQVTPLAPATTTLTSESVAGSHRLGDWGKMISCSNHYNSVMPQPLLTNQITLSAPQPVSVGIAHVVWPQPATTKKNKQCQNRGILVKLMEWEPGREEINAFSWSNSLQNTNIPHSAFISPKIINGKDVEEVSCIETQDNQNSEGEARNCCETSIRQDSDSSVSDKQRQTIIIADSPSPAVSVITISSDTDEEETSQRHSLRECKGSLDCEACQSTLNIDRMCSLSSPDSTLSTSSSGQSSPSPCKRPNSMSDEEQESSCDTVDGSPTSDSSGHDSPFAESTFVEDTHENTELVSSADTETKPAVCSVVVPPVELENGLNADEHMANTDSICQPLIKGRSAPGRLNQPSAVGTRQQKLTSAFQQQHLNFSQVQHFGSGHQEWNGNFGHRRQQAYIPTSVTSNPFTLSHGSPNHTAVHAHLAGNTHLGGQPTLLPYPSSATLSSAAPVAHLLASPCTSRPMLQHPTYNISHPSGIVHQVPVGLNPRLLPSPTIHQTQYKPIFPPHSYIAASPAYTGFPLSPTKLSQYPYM
Method: as §2

DAPK1 = target: T10, DAPK1 (Homo sapiens, UniProt P53355); assay: KINOMEscan; format: binding; conditions: DAPK1; N.B.: no binding at concentrations up to 30 µM
T10 construct: purchased Eurofins Pharma Discovery (KINOMEscan)
T10 sequence (P53355 whole entry): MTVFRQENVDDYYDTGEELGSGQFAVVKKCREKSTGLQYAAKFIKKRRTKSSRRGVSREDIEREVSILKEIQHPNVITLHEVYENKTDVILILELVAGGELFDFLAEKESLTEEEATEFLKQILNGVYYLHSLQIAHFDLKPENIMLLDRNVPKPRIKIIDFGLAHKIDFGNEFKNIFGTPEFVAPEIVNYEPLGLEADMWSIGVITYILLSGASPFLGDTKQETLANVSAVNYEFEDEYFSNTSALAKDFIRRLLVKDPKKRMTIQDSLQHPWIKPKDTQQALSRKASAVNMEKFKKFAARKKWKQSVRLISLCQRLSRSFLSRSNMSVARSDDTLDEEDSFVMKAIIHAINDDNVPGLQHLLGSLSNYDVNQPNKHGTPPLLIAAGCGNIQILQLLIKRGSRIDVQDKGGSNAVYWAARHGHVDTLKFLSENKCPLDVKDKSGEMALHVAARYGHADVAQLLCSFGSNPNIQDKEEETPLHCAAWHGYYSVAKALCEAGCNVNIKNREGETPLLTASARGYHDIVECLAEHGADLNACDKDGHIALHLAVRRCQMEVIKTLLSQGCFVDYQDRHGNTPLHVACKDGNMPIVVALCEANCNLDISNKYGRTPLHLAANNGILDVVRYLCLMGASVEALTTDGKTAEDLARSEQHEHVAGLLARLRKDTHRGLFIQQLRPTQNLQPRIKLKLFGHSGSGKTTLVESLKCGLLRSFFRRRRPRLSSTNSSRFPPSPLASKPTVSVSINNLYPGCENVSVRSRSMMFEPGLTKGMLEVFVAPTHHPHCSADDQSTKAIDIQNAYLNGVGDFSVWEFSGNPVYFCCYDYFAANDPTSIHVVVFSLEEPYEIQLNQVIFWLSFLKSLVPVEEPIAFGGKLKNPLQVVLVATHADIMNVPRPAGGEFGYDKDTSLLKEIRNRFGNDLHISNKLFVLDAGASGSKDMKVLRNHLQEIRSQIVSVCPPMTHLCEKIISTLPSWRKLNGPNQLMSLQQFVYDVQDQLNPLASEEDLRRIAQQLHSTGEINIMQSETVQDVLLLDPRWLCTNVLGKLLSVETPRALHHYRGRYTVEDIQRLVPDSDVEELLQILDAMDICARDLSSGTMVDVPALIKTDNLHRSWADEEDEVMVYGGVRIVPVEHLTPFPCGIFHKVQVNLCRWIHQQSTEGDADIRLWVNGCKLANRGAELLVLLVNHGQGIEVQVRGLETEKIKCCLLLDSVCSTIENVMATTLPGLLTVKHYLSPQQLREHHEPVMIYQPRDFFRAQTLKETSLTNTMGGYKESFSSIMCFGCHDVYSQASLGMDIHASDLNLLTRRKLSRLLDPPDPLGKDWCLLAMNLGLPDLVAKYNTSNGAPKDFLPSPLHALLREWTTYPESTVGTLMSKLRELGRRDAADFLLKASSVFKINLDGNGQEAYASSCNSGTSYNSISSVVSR
Method: as §2

IRAK1 = target: T11, IRAK1 (Homo sapiens, UniProt P51617); assay: KINOMEscan; format: binding; conditions: IRAK1; N.B.: no binding at concentrations up to 30 µM
T11 construct: purchased Eurofins Pharma Discovery (KINOMEscan)
Method: as §2

HIPK2 = target: T12, HIPK2 (Homo sapiens, UniProt Q9H2X6); assay: KINOMEscan; format: binding; conditions: HIPK2; N.B.: no binding at concentrations up to 30 µM
T12 construct: purchased Eurofins Pharma Discovery (KINOMEscan)
Method: as §2

SMILES: Oc1c2ccccc2c2c3c(cccc13)N=N2 [SP600125]
selectivity score, S(10) (kinases): 0.328

SMILES: CON=C1C(=O)Nc2c1cc([N+](=O)[O-])c1c2CCCC1 [Compound 5e, 3-(Methoxyimino)-5-nitro-1,3,6,7,8,9-hexahydro-2H-benzo[g]indol-2-one]
inhibition of secretion of IL-1α, IL-1β, IL-6, TNF and MCP-1 [1]: ineffective

SMILES: CON=C1C(=O)Nc2c1ccc1c2CCCC1 [Compound 5b, 3-(Methoxyimino)-1,3,6,7,8,9-hexahydro-2H-benzo[g]indol-2-one]
inhibition of secretion of IL-1α, IL-1β, IL-6, TNF and MCP-1 [1]: ineffective

Kd (PIM1): 14 ± 0.7 µM
Kd (µM) (DYRK1B): N.B.
Kd (µM) (NEK10): N.B.
Kd (µM) (DYRK1A): N.B.
Kd (µM) (DAPK3): N.B.
Kd (µM) (DAPK2): N.B.
Kd (µM) (HASPIN): N.B.
Kd (µM) (HIPK1): N.B.
Kd (µM) (HIPK3): N.B.
Kd (µM) (DAPK1): N.B.
Kd (µM) (IRAK1): N.B.
Kd (µM) (HIPK2): N.B.
SMILES: CCN1CCc2c(-c3ccccc3)cc3c(c2C1)NC(=O)C3=NO [NS-383, 8-ethyl-6,7,8,9-tetrahydro-5-phenyl-1H-pyrrolo[3,2-h]isoquinolin-2,3-dione-3-oxime, reference compound]
IC50 at 24 h [2]: 21.2 ± 2.4 µM
Cytotoxicity (MonoMac-6 Cells) IC50 (µM) (MonoMac-6 Cells): cytotoxic
IC50 at 24 h [3]: 19.2 ± 2.1 µM
Cytotoxicity (THP-1 Cells) IC50 (µM) (THP-1 Cells): cytotoxic
